This is an account of results in US20090012056A1, “Quinoline Compounds Capable of Binding the Cb2 and/or the 5-Ht6 Receptor” (GLAXO GROUP LIMITED, priority 2005, published 2009).

Structures can show the parent of a compound that is named as a salt.

T2 sequence (P34972 whole entry): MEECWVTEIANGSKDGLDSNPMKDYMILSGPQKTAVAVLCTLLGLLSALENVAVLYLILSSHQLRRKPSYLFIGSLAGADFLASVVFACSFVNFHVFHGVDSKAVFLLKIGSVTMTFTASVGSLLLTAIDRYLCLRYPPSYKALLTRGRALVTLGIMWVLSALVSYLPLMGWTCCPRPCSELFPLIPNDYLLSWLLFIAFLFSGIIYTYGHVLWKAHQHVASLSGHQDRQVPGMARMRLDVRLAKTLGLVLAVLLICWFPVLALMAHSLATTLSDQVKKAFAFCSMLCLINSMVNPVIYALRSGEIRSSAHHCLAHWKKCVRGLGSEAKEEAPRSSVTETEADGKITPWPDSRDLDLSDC

For the first test, the target named is T1, human cloned 5-HT6 receptors (Homo sapiens, UniProt P50406).
T1 construct: expressed in transfected cells; host or cells: HeLa cells (membranes)
T1 sequence (P50406 whole entry): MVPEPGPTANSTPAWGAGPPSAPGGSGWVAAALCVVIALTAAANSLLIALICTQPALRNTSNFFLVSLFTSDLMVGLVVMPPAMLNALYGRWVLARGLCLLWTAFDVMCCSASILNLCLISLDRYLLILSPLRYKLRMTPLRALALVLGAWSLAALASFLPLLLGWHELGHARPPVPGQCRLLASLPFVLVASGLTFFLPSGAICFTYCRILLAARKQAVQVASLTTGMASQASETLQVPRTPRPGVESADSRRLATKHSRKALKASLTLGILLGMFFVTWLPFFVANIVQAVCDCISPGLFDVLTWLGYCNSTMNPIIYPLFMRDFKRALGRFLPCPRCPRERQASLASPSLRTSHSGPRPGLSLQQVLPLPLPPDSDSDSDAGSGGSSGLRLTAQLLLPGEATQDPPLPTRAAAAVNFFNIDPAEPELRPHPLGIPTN
The test can be described thus: Cyclase assay (cAMP production in membranes of HeLa 5HT6 cells, antagonism of 5-HT). It is filed as biochemical. The conditions noted are these: cyclase assay with 5-HT at 4xEC50, read-out: fpKi (functional pKi, antagonist potency) (converted). The method, then:
0.5 μl of test compound in 100% dimethylsulfoxide (DMSO) was added to a white, solid 384 well assay plate (for dose response measurements the top of the concentration range is 7.5 μM final). 10 μl of washed membranes of HeLa 5HT6 cells (for preparation see WO 98/27081) in basic buffer (50 mM HEPES pH 7.4 (KOH), 1 mM MgCl2, 100 mM NaCl, 1 μl/ml 3-isobutyl-1-methylxanthine (IBMX) (Sigma-Aldrich)) was added to all wells followed by 10 μl 2×ATP buffer (100 μl/ml ATP and 1 μl/ml 3-Isobutyl-1-methylxanthine (IBMX) (Sigma-Aldrich)) with 5-HT (at a concentration equivalent to a dose response of 4×EC50). The resultant mixture was then incubated at room temperature for 30-45 minutes to allow cAMP production.
cAMP production was then measured using the DiscoveRx™ HitHunter™ chemiluminescence cAMP assay kit (DiscoveRx Corporation, 42501 Albrae Street, Fremont, Calif. 94538; Product Code: 90-0004L) or any other suitable cAMP measurement assay.
IC50 values were estimated from arbitrary designated unit (ADU) measurements from a Perkin Elmer Viewlux instrument using a four parameter logistic curve fit within EXCEL (Bowen, W. P. and Jerman, J. C. (1995), Nonlinear regression using spreadsheets. Trends in Pharmacol. Sci., 16, 413-417). Functional Ki values were calculated using the method of Cheng, Y. C. and Prussof, W. H. (Biochemical Pharmacol (1973) 22 3099-3108). pIC50 and fpKi are the negative log 10 of the molar IC50 and functional Ki respectively.
(Changes in cAMP serve as a functional read-out for many G protein-coupled receptors.)
Take `O=S(=O)(c1ccccc1)c1cnc2c(CN3CCCC3)cccc2c1` [Example 1, 3-(Phenylsulfonyl)-8-(1-pyrrolidinylmethyl)quinoline hydrochloride]: the Ki is less than 100 nM. Still for that read-out and setting: in the case of `CN1CCN(Cc2cccc3cc(S(=O)(=O)c4ccccc4)cnc23)CC1` [Example 3, 8-[(4-Methyl-1-piperazinyl)methyl]-3-(phenylsulfonyl)quinoline] it was less than 100 nM; in that of `O=S(=O)(c1ccccc1)c1cnc2c(CCN3CCCC3)cccc2c1` [Example 10, 3-(Phenylsulfonyl)-8-[2-(1-pyrrolidinyl)ethylquinoline hydrochloride], less than 100 nM; in that of `O=S(=O)(c1ccccc1)c1cnc2c(CCN3CCCCC3)cccc2c1` [Example 11, 3-(Phenylsulfonyl)-8-[2-(1-piperidiny)ethyl]quinoline hydrochloride], less than 100 nM. The same measure, in the same setting: in the case of `O=S(=O)(c1ccccc1)c1cnc2c(CCCN3CCCC3)cccc2c1` [Example 12, 3-(Phenylsulfonyl)-8-[3-(1-pyrrolidinyl)propyl]quinoline hydrochloride] it was less than 100 nM; in that of `O=S(=O)(c1ccccc1)c1cnc2c(CCCN3CCCCC3)cccc2c1` [Example 13, 3-(Phenylsulfonyl)-8-[3-(1-piperidinyl)propyl]quinoline], less than 100 nM. As for `O=S(=O)(c1ccccc1)c1cnc2c(CCCN3CCOCC3)cccc2c1` [Example 14], the Ki was less than 100 nM. For the compound `CN(C)CCCc1cccc2cc(S(=O)(=O)c3ccccc3)cnc12` [Example 15, N,N-Dimethyl-3-[3-(phenylsulfonyl)-8-quinolinyl]-1-propanamine], the Ki is less than 100 nM. Same read-out and setting: in the case of `CC(c1cccc2cc(S(=O)(=O)c3ccccc3)cnc12)N1CCCC1` (stereo not drawn) [Example 16, 3-(Phenylsulfonyl)-8-(1-pyrrolidin-1-ylethyl)quinoline hydrochloride] it was less than 100 nM. As for `CC(c1cccc2cc(S(=O)(=O)c3ccccc3)cnc12)N1CCCCC1` (stereo not drawn) [Example 17, 3-(phenylsulfonyl)-8-(1-piperidin-1-ylethyl)quinoline], the Ki was less than 100 nM. On the same count and under the same terms, in the case of `CC(c1cccc2cc(S(=O)(=O)c3ccccc3)cnc12)N1CCOCC1` (stereo not drawn) [Example 18, 8-(1-morpholin-4-ylethyl)-3-(phenylsulfonyl)-quinoline] it was not above 1000 nM; in that of `CC(c1cccc2cc(S(=O)(=O)c3ccccc3)cnc12)N(C)C` (stereo not drawn) [Example 19, N,N-dimethyl-1-[3-(phenylsulfonyl)quinolin-8-yl]ethanamine], less than 100 nM; in that of `CCN(C)C(C)c1cccc2cc(S(=O)(=O)c3ccccc3)cnc12` (stereo not drawn) [Example 21, N-Ethyl-N-methyl-1-[3-(phenylsulfonyl)quinolin-8-yl]ethanamine hydrochloride], less than 100 nM. In the case of `CC(C)(c1cccc2cc(S(=O)(=O)c3ccccc3)cnc12)N1CCCC1` [Example 22, 8-(1-Methyl-1-pyrrolidin-1-ylethyl)-3-(phenylsulfonyl)quinoline hydrochloride], the Ki was not above 1000 nM.

Another test has as its target T2, human cannabinoid CB2 receptor (Homo sapiens, UniProt P34972).
T2 construct: expressed in transfected cells; host or cells: Saccharomyces cerevisiae strain MMY23
Kind of test: Cannabinoid CB2 receptor agonist activity in yeast cells expressing the human CB2 receptor (FDGlu fluorescence). It is filed as cell-based. The conditions noted are these: 24 hours at 30° C., read-out: pEC50 at the CB2 receptor (agonist activity) (converted). From the text:
Yeast (Saccharomyces cerevisiae) cells expressing the human cannabinoid CB2 receptor were generated by integration of an expression cassette into the ura3 chromosomal locus of yeast strain MMY23. This cassette consisted of DNA sequence encoding the human CB2 receptor flanked by the yeast GPD promoter to the 5′ end of CB2 and a yeast transcriptional terminator sequence to the 3′ end of CB2. MMY23 expresses a yeast/mammalian chimeric G-protein alpha subunit in which the C-terminal 5 amino acids of Gpa1 are replaced with the C-terminal 5 amino acids of human Gαi1/23 (as described in Brown et al. (2000), Yeast 16:11-22). Cells were grown at 30° C. in liquid Synthetic Complete (SC) yeast media (Guthrie and Fink (1991), Methods in Enzymology, Vol. 194) lacking uracil, tryptophan, adenine and leucine to late logarithmic phase (approximately 6 OD600/ml).
Agonists were prepared as 10 mM solutions in DMSO. EC50 values (the concentration required to produce 50% maximal response) were estimated using 4 fold dilutions of between 3- and 5-fold (BiomekFX, Beckman) into DMSO. Agonist solutions in DMSO (1% final assay volume) were transferred into black microtitre plates from NUNC Greiner (384-well). Cells were suspended at a density of 0.2 OD600/ml in SC media lacking histidine, uracil, tryptophan, adenine and leucine and supplemented with 10 mM 3-aminotriazole, 0.1M sodium phosphate pH 7.0, and 120 μM fluorescein di-β-D-glucopyranoside (FDGlu). This mixture (50 ul per well) was added to agonist in the assay plates (Multidrop 384, Labsystems). After incubation at 30° C. for 24 hours, fluorescence resulting from degradation of FDGlu to fluorescein due to exoglucanase, an endogenous yeast enzyme produced during agonist-stimulated cell growth, was determined using a fluorescence microtitre plate reader (Tecan Spectrofluor or LJL Analyst excitation wavelength: 485 nm; emission wavelength: 535 nm). Fluorescence was plotted against compound concentration and iteratively curve fitted using a four parameter fit to generate a concentration effect value.
Efficacy (Emax) was calculated from the equation
Emax=Max[compound X]−Min[compound X]/Max[HU210]−Min[HU210]×100% • where Max[compound X] and Min[compound X] are the fitted maximum and minimum respectively from the concentration effect curve for compound X, and Max[HU210] and Min[HU210] are the fitted maximum and minimum respectively from the concentration effect curve for (6aR,10aR)-3-(1,1′-Dimethylheptyl)-6a,7,10,10a-tetrahydro-1-hydroxy-6,6-dimethyl-6H-dibenzo[b,d]pyran-9-methanol (HU210; available from Tocris). Equieffective molar ratio (EMR) values were calculated from the equation
EMR=EC50[compound X]/EC50[HU210] • Where EC50 [compound X] is the EC50 of compound X and EC50 [HU210] is the EC50 of HU210. • pEC50 is the negative log of the EC50.
Turning to `O=S(=O)(c1ccccc1)c1cnc2c(CN3CCCC3)cccc2c1` [Example 1, 3-(Phenylsulfonyl)-8-(1-pyrrolidinylmethyl)quinoline hydrochloride], the EC50 was not above 10000 nM.

For the compound `CN1CCN(Cc2cccc3cc(S(=O)(=O)c4ccccc4)cnc23)CC1` [Example 3, 8-[(4-Methyl-1-piperazinyl)methyl]-3-(phenylsulfonyl)quinoline], the EC50 is more than 31600 nM. For `O=S(=O)(c1ccccc1)c1cnc2c(CN3CCC(F)(F)C3)cccc2c1` [Example 33, 8-[(3,3-Difluoro-1-pyrrolidinyl)methyl]-3-(phenylsulfonyl)quinoline hydrochloride], the EC50 was less than 1000 nM.

Regarding `O=S(=O)(c1ccccc1)c1cnc2c(CN3CC(F)(F)C3)cccc2c1` [Example 34, 8-[(3,3-Difluoro-1-azetidinyl)methyl]-3-(phenylsulfonyl)quinoline hydrochloride], the EC50 was less than 1000 nM. In the case of `CC(c1cccc2cc(S(=O)(=O)c3ccccc3)cnc12)N1CC(F)(F)C1` (stereo not drawn) [Example 35, 8-[1-(3,3-Difluoro-1-azetidinyl)ethyl]-3-(phenylsulfonyl)quinoline], the EC50 is less than 1000 nM. Regarding `CC(c1cccc2cc(S(=O)(=O)c3ccccc3)cnc12)N1CCC(F)(F)C1` (stereo not drawn) [Example 36, 8-[1-(3,3-Difluoro-1-pyrrolidinyl)ethyl]-3-(phenylsulfonyl)quinoline], the EC50 was less than 1000 nM. For `CC(c1cccc2cc(S(=O)(=O)c3ccccc3)cnc12)N1CCCC(F)(F)C1` (stereo not drawn) [Example 37, 8-[1-(3,3-Difluoro-1-piperidinyl)ethyl]-3-(phenylsulfonyl)quinoline], the EC50 was less than 1000 nM. Same read-out and setting: in the case of `O=S(=O)(c1ccc(F)cc1)c1cnc2c(CN3CCCC(F)(F)C3)cccc2c1` [Example 38, 8-[(3,3-Difluoro-1-piperidinyl)methyl]-3-[(4-fluorophenyl)sulfonyl]quinoline hydrochloride] it was less than 1000 nM; in that of `Cc1ccc(S(=O)(=O)c2cnc3c(CN4CCCC(F)(F)C4)cccc3c2)cc1` [Example 39, 8-[(3,3-Difluoro-1-piperidinyl)methyl]-3-[(4-methylphenyl)sulfonyl]quinoline hydrochloride], less than 1000 nM. Consider `O=S(=O)(c1ccc(Cl)cc1)c1cnc2c(CN3CCCC(F)(F)C3)cccc2c1` [Example 40, 3-[(4-Chlorophenyl)sulfonyl]-8-[(3,3-difluoro-1-piperidinyl)methyl]quinolinehydrochloride], for which the EC50 is less than 1000 nM. On to `O=S(=O)(c1ccc(Br)cc1)c1cnc2c(CN3CCCC(F)(F)C3)cccc2c1` [Example 41, 3-[(4-Bromophenyl)sulfonyl]-8-[(3,3-difluoro-1-piperidinyl)methyl]quinolinehydrochloride], for which the EC50 is less than 1000 nM. Same read-out and setting: in the case of `COc1ccc(S(=O)(=O)c2cnc3c(CN4CCCC(F)(F)C4)cccc3c2)cc1Cl` [Example 42, 3-{[3-Chloro-4-(methyloxy)phenyl]sulfonyl}-8-[(3,3-difluoro-1-piperidinyl)methyl]quinolinehydrochloride] it was not above 10000 nM. In the case of `COc1ccc(S(=O)(=O)c2cnc3c(CN4CCCC(F)(F)C4)cccc3c2)cc1NC(C)=O` [Example 43, N-[5-({8-[(3,3-Difluoro-1-piperidinyl)methyl]-3-quinolinyl}sulfonyl)-2-(methyloxy)phenyl]acetamidehydrochloride], the EC50 is less than 1000 nM. As for `COc1ccc(S(=O)(=O)c2cnc3c(CN4CCCC(F)(F)C4)cccc3c2)cc1OC` [Example 44, 3-{[3,4-Bis(methyloxy)phenyl]sulfonyl}-8-[(3,3-difluoro-1-piperidinyl)methyl]quinolinehydrochloride], the EC50 is less than 1000 nM.

With `Cc1ccc(S(=O)(=O)c2cnc3c(CN4CCCC(F)(F)C4)cccc3c2)cc1Cl` [Example 45, 3-[(3-Chloro-4-methylphenyl)sulfonyl]-8-[(3,3-difluoro-1-piperidinyl)methyl]quinolinehydrochloride], the EC50 was less than 1000 nM. The same measure, in the same setting: as for `O=S(=O)(c1ccc2ccccc2c1)c1cnc2c(CN3CCCC(F)(F)C3)cccc2c1` [Example 46, 8-[(3,3-Difluoro-1-piperidinyl)methyl]-3-(2-naphthalenylsulfonyl)quinolinehydrochloride], the figure is less than 1000 nM.
